According to ChEMBL document CHEMBL3091356, “Salen and tetrahydrosalen derivatives act as effective inhibitors of the tumor-associated carbonic anhydrase XII--a new scaffold for designing isoform-selective inhibitors” (Bioorg Med Chem Lett, 2013):
pKi: −log10 of the molar value.

Columns and labels:
[1] = target: Carbonic anhydrase 1 (Homo sapiens, UniProt P00915); experiment: Inhibition of human recombinant carbonic anhydrase 1-mediated CO2 hydration preincubated for 15 mins by stopped-flow assay
[2] = target: Carbonic anhydrase 9 (Homo sapiens, UniProt Q16790)
Description: Inhibition of human recombinant carbonic anhydrase 9-mediated CO2 hydration preincubated for 15 mins by stopped-flow assay

[3] = target: Carbonic anhydrase 2 (Homo sapiens, UniProt P00918); experiment: Inhibition of human recombinant carbonic anhydrase 2-mediated CO2 hydration preincubated for 15 mins by stopped-flow assay
[4] = target: Carbonic anhydrase 12 (Homo sapiens, UniProt O43570); experiment: Inhibition of human recombinant carbonic anhydrase 12-mediated CO2 hydration preincubated for 15 mins by stopped-flow assay
Carbonic anhydrase 12, sequence (O43570 whole entry): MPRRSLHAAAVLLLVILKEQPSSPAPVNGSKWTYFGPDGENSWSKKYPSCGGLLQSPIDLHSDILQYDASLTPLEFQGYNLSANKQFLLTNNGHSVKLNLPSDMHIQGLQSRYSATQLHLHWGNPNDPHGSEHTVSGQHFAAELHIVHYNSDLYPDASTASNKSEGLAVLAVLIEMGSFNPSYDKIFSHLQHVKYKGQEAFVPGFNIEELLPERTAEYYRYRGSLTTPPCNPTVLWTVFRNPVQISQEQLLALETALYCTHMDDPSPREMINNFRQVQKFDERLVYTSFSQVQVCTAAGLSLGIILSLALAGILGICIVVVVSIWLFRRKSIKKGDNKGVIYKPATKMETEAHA

Carbonic anhydrase 1, sequence (P00915 whole entry): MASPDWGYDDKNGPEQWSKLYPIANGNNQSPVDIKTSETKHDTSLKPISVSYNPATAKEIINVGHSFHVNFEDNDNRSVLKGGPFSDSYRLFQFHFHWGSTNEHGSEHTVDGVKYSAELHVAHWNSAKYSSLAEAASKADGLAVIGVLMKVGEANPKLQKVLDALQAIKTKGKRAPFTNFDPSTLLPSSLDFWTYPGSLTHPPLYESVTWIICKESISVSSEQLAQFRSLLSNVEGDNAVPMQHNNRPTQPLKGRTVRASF

| SMILES | pKi [1] | pKi [2] | pKi [3] | pKi [4] |
| --- | --- | --- | --- | --- |
| Oc1ccccc1CNCCCCNCc1ccccc1O | < 4.00 | 5.36 | – | – |
| Oc1ccccc1/C=N/CCCCC/N=C/c1ccccc1O | < 4.00 | 5.35 | – | – |
| Oc1ccccc1CNCCCCCCNCc1ccccc1O | < 4.00 | 5.60 | – | – |
| Oc1ccccc1/C=N/CCC/N=C/c1ccccc1O | < 4.00 | 4.80 | – | – |
| O=[N+]([O-])c1ccccc1/C=N/CCCCCC/N=C/c1ccccc1[N+](=O)[O-] | < 4.00 | < 4.00 | < 4.00 | – |
| Oc1ccccc1/C=N/CC/N=C/c1ccccc1O | < 4.00 | < 4.00 | 5.76 | 6.55 |
| COc1cccc(/C=N/CC/N=C/c2cccc(OC)c2O)c1O | < 4.00 | < 4.00 | < 4.00 | – |
| Oc1ccccc1CNCCNCc1ccccc1O | < 4.00 | < 4.00 | – | – |
| Oc1ccccc1CNCCCCCNCc1ccccc1O | < 4.00 | 5.38 | – | – |
| Oc1ccccc1CNCCCNCc1ccccc1O | < 4.00 | 5.47 | 6.41 | 7.40 |
| Oc1ccccc1/C=N/CCCC/N=C/c1ccccc1O | < 4.00 | – | – | – |
| Oc1ccccc1/C=N/c1ccccc1/N=C/c1ccccc1O | < 4.00 | 5.61 | – | – |
| Oc1ccccc1/C=N/CCCCCC/N=C/c1ccccc1O | < 4.00 | 5.36 | 5.44 | 6.37 |
| Oc1ccccc1CNc1ccccc1NCc1ccccc1O | < 4.00 | 6.66 | – | – |
